Data reported in patent US6703361B2, “Method of treating or preventing Type 1 diabetes by oral administration of insulin” (AutoImmune Inc., priority 1990, dated 2004).
“Also recorded” adds a separate entry of the source.

Columns and labels:
Format in all cases: in vivo
[1] = tested on: spontaneous diabetes in NOD mice; test: Effect of feeding porcine insulin on spontaneous diabetes in NOD mice (Example 1)
From the text: NOD (non-obese diabetic mice) were obtained from Taconic Laboratories (Germantown, Mass.) at 4 weeks of age. There were a total of 30 animals in each of the groups mentioned below at the beginning of the experiment. At 4½ weeks of age, animals were orally administered Porcine insulin (Novo Laboratories, Danbury, Conn.). Each animal received two treatments orally twice a week until 9 weeks of age. The mice were fed either saline (control) or 10 micrograms, 100 micrograms, or 1 milligram of Porcine insulin. The animals were fed (gavaged) with an 18 gauge ball-point needle (Popper and Sons, Inc., New Hyde Park, N.Y.). Beginning at 10 weeks the animals were then fed once a week for a total of 33 weeks. Beginning at 12 weeks the urine was tested weekly for the presence of glucose using Glucosuria test tape (Eli Lilly, Indianapolis, Ind.). If an animal tested 3+ or higher on the glucose urine test, a serum sample was taken and blood glucose measured using a glucose analyzer (Beckman). If the blood glucose was 220 or higher, the animals were classified as diabetic and then sacrificed.

[2] = tested on: blood glucose in fasting NOD mice; test: Glucose post oral insulin in fasting 7 week NOD mice (Example 2); settings: for blood glucose after feeding: 1 mg fed orally, fasting 7 week old NOD mice
Description: In order to determine whether any endocrinologic (i.e. direct lowering of blood sugar) effects occurred following the feeding of insulin, 7 week old NOD mice (5 mice per group) were fed 1 mg of porcine insulin or 1 mg of myelin basic protein (obtained from Pel Freez, Rogers, Ark.) as a control protein. Blood glucose was then measured over the next 24 hour period. As a positive control, a separate group of animals were injected subcutaneously with 20 micrograms of Porcine insulin. All animals were kept in the fasting state.

insulitis in NOD mice = test: Preliminary experiments on insulitis in insulin-fed NOD mice; settings: NOD mice fed 1 mg of insulin vs PBS-fed, data not shown
From the text: Therefore, oral administration of insulin to NOD mice appeared to be affecting the infiltration of immune system cells into the pancreas and thus halting disease progression by preserving beta cell function.

diabetes in NOD mice = test: Effect of aerosol administration of insulin on diabetes in NOD mice (Example 4); settings: insulin 0 to 1 mg in aerosol form by nebulizer; expected
Description: Insulin (0 to 1 mg as in Examples 1 and 2) will be administered to NOD mice as described above in Examples 1 and 2 except in aerosol form by nebulizer.

[3] = tested on: NOD mice suffering from hyperglycemia; test: Treatment of initial stages of diabetes in NOD mice (Example 5); settings: oral and aerosol administration to hyperglycemic NOD mice; expected
Description: Insulin (0 to 1 mg as in Examples 1 and 2) will be administered to NOD mice which are suffering from hyperglycemia in an oral and aerosol form. The treatments will begin by weeks 12-20 of age, by which the serum glucose levels are at hyperglycemic concentrations in a certain percentage of animals prior to onset of diabetes.

Molecule	development of diabetes ([1]; NOD mice fed 1 mg insulin orally)	development of diabetes ([1]; NOD mice fed 10 micrograms insulin orally)	development of diabetes ([1]; NOD mice fed 100 micrograms insulin orally)	incidence of diabetes ([1]; all doses of orally administered insulin tested (10 micrograms, 100 micrograms, 1 mg))	blood glucose after feeding [2]	endocrinologic (metabolic) effects from feeding ([2]; 1 mg oral insulin, NOD mice)	period over which the glucose decrease persisted ([2]; 20 micrograms porcine insulin injected subcutaneously, fasting NOD mice)	decrease in glucose level ([2]; 20 micrograms porcine insulin injected subcutaneously, fasting NOD mice (positive control))	inflammatory immune system cells surrounding the pancreas (insulitis) (insulitis in NOD mice)	prevention of manifestation of symptoms (hyperglycemia) of Type 1 diabetes (diabetes in NOD mice)	beta cell function [3]	serum glucose concentrations [3]
Porcine insulin	none of the mice went on to develop diabetes; also recorded: no diabetes developed; also recorded: None of the animals developed diabetes	diabetes developed	diabetes developed	lower incidence of diabetes; also recorded: reduced the numbers of these mice which subsequently went on to develop diabetes	no drop in the blood glucose	not a metabolic effect; also recorded: no endocrinologic (metabolic) effects	4 h	approximately 80 mg %	fewer inflammatory immune system cells surrounding the pancreas	effective in preventing the manifestation of symptoms	preservation of beta cell function	reduction in serum glucose concentrations to near normal levels
myelin basic protein (protein, UniProt P02687 1-169, looked up, myelin basic protein (obtained from Pel Freez) fed as a control protein) Myelin basic protein: AAQKRPSQRSKYLASASTMDHARHGFLPRHRDTGILDSLGRFFGSDRGAPKRGSGKDGHHAARTTHYGSLPQKAQGHRPQDENPVVHFFKNIVTPRTPPPSQGKGRGLSLSRFSWGAEGQKPGFGYGGRASDYKSAHKGLKGHDAQGTLSKIFKLGGRDSRSGSPMARR	–	–	–	–	no drop in the blood glucose	–	–	–	–	–	–	–
